{"source": "patent US7094753B2", "about": "“Somatostatin analog and uses thereof” (Societe de Conseils de Recherches et d'Applications …, priority 2001, dated 2006)", "key": {"[1]": {"test_system": "mixed GH-/PRL-secreting tumor cells", "test": "Inhibition of PRL release in mixed GH-/PRL-secreting tumor cell cultures", "format": "cell-based, human", "conditions": "five tumor cell cultures (A1, A2, A7, A9, A10); for mean maximal PRL suppression: at 10 nmol/L", "description": "(§1) GH and PRL were measured using commercial immunoradiometric kits (Immunotech, Marseilles, France). Normal GH values ranged from 0.2–2.4 μg/L; normal PRL values ranged from 1–24 μg/L in women and from 1–17 μg/L in men. After an ethanol-acid extraction, the plasma IGF-I assay was performed using the IGF-I RIA kit from Nichols Institute Diagnostics (San Juan Capistrano, Calif.).\n(§2) A portion of each tumor obtained at surgery was dissociated by mechanical and enzymatic methods. […] Tumor cells were initially cultured in DMEM supplemented with 10% FCS for 3 days. On day 3, the cells were washed and plated in multiwell culture dishes (Costar 3524, Brumath, France) coated with extracellular matrix from bovine endothelial corneal cells as previously described (Jaquet P, et al., 1985, Horm Res. 22:153–163.) at a density of 2×10^4 cells/well. When they were attached to the matrix on days 5–8, depending on the culture, the medium was removed and replaced with DMEM supplemented with 2% FCS, antibiotics, transferrin, and selenium as previously described (Jaquet P, et al., 1985, Horm Res. 22:153–163.). […] Each drug concentration was tested in quadruplicate.\n(§3) SRIF-14 was purchased from Sigma (Saint-Quentin Fallavier, France). […] The native SRIF and SRIF analogs were dissolved in 0.01 mol/L acetic acid containing 0.1% purified serum albumin (Life Technologies, Inc., Cergy-Pontoise, France). The drugs were stored at −80 C. as 10^−3 mol/L solutions. For each experiment, fresh working solutions were prepared from a new aliquot.\n(§4) The results are presented as the mean±SEM. Statistical significance between two unpaired groups was determined by the Mann-Whitney test. To measure the strength of association between the pairs of variables without specifying dependencies, Spearman order correlation's were used. P<0.05 was considered significant for all tests."}, "[2]": {"test_system": "GH-secreting adenoma cells", "conditions": "for suppression of GH: 10 nM; for mean maximal GH suppression: at nanomolar concentrations; for EC50: read-out: EC50 of inhibition of GH release", "description": "as §1, §2, §3, §4"}, "GH": {"test_system": "GH", "test": "Acute octreotide test in acromegalic patients (GH decrease)", "format": "in vivo, human", "conditions": "for mean GH suppression: single 200 μg injection, GH 2–6 h after injection vs basal; for Percent inhibition vs. GH basal value: 2–6 h after 200 μg sc; for GH under octreotide: mean GH 2–6 h after 200 μg sc", "description": "Ten acromegalic patients (seven women and three men), aged 26–62 years, presenting with macroadenoma were studied. Their endocrine status and the neuroradiological characterization of the pituitary adenomas were documented before treatment. Basal GH levels were the mean of three random samples obtained between 0800–0900 h. The basal IGF-I value was evaluated under fasting conditions between 0800–0900 h. […] All patients underwent transsphenoidal surgery.\nas §1"}, "[3]": {"conditions": "octreotide partially responsive tumors (A6–A10)"}, "[4]": {"conditions": "octreotide-sensitive tumors (A1–A5)"}}, "note": "Where two headings read alike, the source gives them in different places. Bridge positions count the residues as written; N and C are the ends. Square brackets hold non-standard residues; d marks the D form. Peptide text beside a SMILES is read from it."}
{"molecule": "CC[C@@H]1NC(=O)[C@H](CCCCN)NC(=O)[C@@H](Cc2c[nH]c3ccccc23)NC(=O)[C@H](Cc2ccc(O)cc2)NC(=O)[C@@H](NC(=O)[C@@H](Cc2ccccc2)NS(=O)(=O)CCN2CCN(CCO)CC2)CSSC[C@@H](C(=O)N[C@H](C(N)=O)[C@@H](C)O)NC1=O", "note": "[Compound A]", "values": [{"measurement": "mean maximal PRL inhibition", "setting": "[1]", "value": "34±5", "unit": "%"}, {"measurement": "maximal GH suppression", "setting": "[2]; [3]", "value": "31±5", "unit": "%"}, {"measurement": "maximal mean GH suppression", "setting": "[2]; octreotide-sensitive tumors (A1–A5), at 0.1 nmol/L", "value": "41±7", "unit": "%"}]}
{"molecule": "C[C@@H](O)[C@@H]1NC(=O)[C@H](CCCCN)NC(=O)[C@@H](Cc2c[nH]c3ccccc23)NC(=O)[C@H](Cc2ccccc2)NC(=O)[C@H](Cc2ccccc2)NC(=O)[C@@H](N)CSSC[C@@H](C(N)=O)NC(=O)[C@H](Cc2ccccc2)NC1=O", "note": "[Compound B] (H-CFF[dW]KTFC-NH2; disulfide 1-8)", "values": [{"measurement": "mean maximal PRL inhibition", "setting": "[1]", "value": "52±6", "unit": "%"}, {"measurement": "maximal GH suppression", "setting": "[2]; [3]", "value": "38±7", "unit": "%"}, {"measurement": "concentration producing maximal inhibition of GH release", "setting": "[2]; [4]", "value": 10, "unit": "nmol/L"}]}
{"molecule": "CC(C)[C@@H]1NC(=O)[C@H](CCCCN)NC(=O)[C@@H](Cc2c[nH]c3ccccc23)NC(=O)[C@H](Cc2ccc(O)c(I)c2)NC(=O)[C@@H](NC(=O)[C@H](N)Cc2ccccc2)CSSC[C@@H](C(=O)N[C@H](C(N)=O)[C@@H](C)O)NC1=O", "note": "[Formula (I), D-Phe-c(Cys-Tyr(I)-D-Trp-Lys-Val-Cys)-Thr-NH2]", "values": [{"measurement": "mean maximal PRL suppression", "setting": "[1]", "value": "51±5", "unit": "%"}, {"measurement": "maximal GH suppression", "setting": "[2]; [3]", "value": "44±5", "unit": "%"}, {"measurement": "suppression of GH", "setting": "[2]; [3]", "value": "44±5", "unit": "%"}, {"measurement": "mean maximal GH suppression", "setting": "[2]; [4]", "value": "44±5", "unit": "%"}]}
{"molecule": "C[C@H](N)C(=O)NCC(=O)N[C@H]1CSSC[C@@H](C(=O)O)NC(=O)[C@H](CO)NC(=O)[C@H]([C@@H](C)O)NC(=O)[C@H](Cc2ccccc2)NC(=O)[C@H]([C@@H](C)O)NC(=O)[C@H](CCCCN)NC(=O)[C@H](Cc2c[nH]c3ccccc23)NC(=O)[C@H](Cc2ccccc2)NC(=O)[C@H](Cc2ccccc2)NC(=O)[C@H](CC(N)=O)NC(=O)[C@H](CCCCN)NC1=O", "note": "[Somatostatin-14]", "values": [{"measurement": "dose-related inhibition of PRL release compared with Compound B", "setting": "[1]", "value": "similarly achieved"}, {"measurement": "maximal GH suppression compared with Compound B", "setting": "[2]; [3]", "value": "equally achieved"}]}
{"molecule": "Octreotide", "values": [{"measurement": "mean maximal PRL suppression", "setting": "[1]", "value": "34±7", "unit": "%"}, {"measurement": "mean GH suppression", "setting": "GH; five full octreotide responders", "value": "79±7", "unit": "%"}, {"measurement": "mean GH suppression", "setting": "GH; five partial octreotide responders", "value": "33±6", "unit": "%"}, {"measurement": "Percent inhibition vs. GH basal value", "setting": "GH; patient A1", "value": 91, "unit": "%"}, {"measurement": "GH under octreotide", "setting": "GH; patient A1, basal 11", "value": 1, "unit": "µg/L"}, {"measurement": "Percent inhibition vs. GH basal value", "setting": "GH; patient A2", "value": 82, "unit": "%"}, {"measurement": "GH under octreotide", "setting": "GH; patient A2, basal 22", "value": 4, "unit": "µg/L"}, {"measurement": "Percent inhibition vs. GH basal value", "setting": "GH; patient A3", "value": 76, "unit": "%"}, {"measurement": "GH under octreotide", "setting": "GH; patient A3, basal 109", "value": 26, "unit": "µg/L"}, {"measurement": "Percent inhibition vs. GH basal value", "setting": "GH; patient A4", "value": 75, "unit": "%"}, {"measurement": "GH under octreotide", "setting": "GH; patient A4, basal 141", "value": 36, "unit": "µg/L"}, {"measurement": "Percent inhibition vs. GH basal value", "setting": "GH; patient A5", "value": 75, "unit": "%"}, {"measurement": "GH under octreotide", "setting": "GH; patient A5, basal 47", "value": 12, "unit": "µg/L"}, {"measurement": "Percent inhibition vs. GH basal value", "setting": "GH; patient A6", "value": 40, "unit": "%"}, {"measurement": "GH under octreotide", "setting": "GH; patient A6, basal 5", "value": 3, "unit": "µg/L"}, {"measurement": "Percent inhibition vs. GH basal value", "setting": "GH; patient A7", "value": 39, "unit": "%"}, {"measurement": "GH under octreotide", "setting": "GH; patient A7, basal 26", "value": 15.8, "unit": "µg/L"}, {"measurement": "Percent inhibition vs. GH basal value", "setting": "GH; patient A8", "value": 37, "unit": "%"}, {"measurement": "GH under octreotide", "setting": "GH; patient A8, basal 13", "value": 8.2, "unit": "µg/L"}, {"measurement": "Percent inhibition vs. GH basal value", "setting": "GH; patient A9", "value": 29, "unit": "%"}, {"measurement": "GH under octreotide", "setting": "GH; patient A9, basal 141", "value": 100, "unit": "µg/L"}, {"measurement": "Percent inhibition vs. GH basal value", "setting": "GH; patient A10", "value": 23, "unit": "%"}, {"measurement": "GH under octreotide", "setting": "GH; patient A10, basal 195", "value": 151, "unit": "µg/L"}, {"measurement": "suppression of GH", "setting": "[2]; [3]", "value": "26±7", "unit": "%"}, {"measurement": "mean maximal GH suppression", "setting": "[2]; [4]", "value": "36±7", "unit": "%"}, {"measurement": "EC50", "setting": "[2]; cultures from the 5 octreotide partially responsive tumors (A6–A10)", "value": "0.2 ± 0.145", "unit": "nM"}, {"measurement": "EC50", "setting": "[2]; cultures from the 5 octreotide-sensitive tumors (A1–A5), 8-h period", "value": "0.055 ± 0.015", "unit": "nM"}]}
